Values of other authors as cited in US10927113B2, “Process for preparing purine derivatives” (Cyclacel Limited, priority 2017, dated 2021).

Legend:
[1] = tested on: a range of different cell lines; conditions: background statement
[2] = tested on: CDK; conditions: background statement referring to WO 2008/122767

What does the source list for `CC[C@H](Nc1nc(NCc2cnc(C)cc2C)c2ncn(C(C)C)c2n1)[C@@H](C)O` [Compound [1]]?
potency in cellular toxicity studies [1]: surprisingly high potency; CDK inhibitory activity [2]: potent CDK inhibitory activity
